According to publication PMC7901650, “Garcinoic Acid Is a Natural and Selective Agonist of Pregnane X Receptor” (Journal of Medicinal Chemistry, 2020):

Columns and labels:
hPXR = biological target: T1, hPXR (Homo sapiens, UniProt O75469); test: AlphaScreen coactivator recruitment assay, PXR; type: biochemical; details: 10 μM compound concentration
T1 construct: GST-LBD
T1 sequence (O75469 146-433 limits assumed): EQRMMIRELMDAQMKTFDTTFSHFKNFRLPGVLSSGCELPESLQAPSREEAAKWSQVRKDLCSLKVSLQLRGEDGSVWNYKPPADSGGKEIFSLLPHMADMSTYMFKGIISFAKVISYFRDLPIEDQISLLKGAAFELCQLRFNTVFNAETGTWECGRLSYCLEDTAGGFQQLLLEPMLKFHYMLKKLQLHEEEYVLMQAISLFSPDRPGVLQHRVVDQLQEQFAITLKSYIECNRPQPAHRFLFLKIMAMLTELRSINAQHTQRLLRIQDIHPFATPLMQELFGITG

RAR = test: AlphaScreen nuclear receptor panel, RAR; type: biochemical, human
Source text: (§1) Ligand binding activity of GA (1) was explored via AlphaScreen technology over a panel of NRs that, along with hPXR (Figure 1A), included major human endocrine and metabolic receptors, such as the retinoid X receptor (RXR), constitutive androstane receptor (CAR), farnesoid X receptor (FXR), vitamin D receptor (VDR), liver X receptor (LXR) forms α and β, and the PPAR isoforms α, δ, and γ (see Figure S1). GA (1) was compared to its analogue δ-tocotrienol (5), the vitamers 3 and 4, their short-chain metabolites (SCMs) α-CEHC (10) and γ-CEHC (11), and the LCMs 2 and 8 (Chart 1). The test was performed in the presence of reference standard agonists for the different NRs.
(§2) The activity of nuclear receptors was determined using AlphaScreen technology, a recruitment coactivator assay previously described.[56]
(§3) (A) The test was carried out at 10 μM compound final concentration. Ligand binding to nuclear receptors was expressed as luminescence units. […] Vehicle was assessed to obtain a measure of background signal (basal evaluation). […] In presence of the ligand, the nuclear receptor LBD undergoes conformational changes, binds to the coactivator and the chemical energy is transferred from donor to acceptor beads in order to produce a signal, i.e. luminescence; in this case the compounds behaves as agonist, changing the conformation of the receptor to recruit the coactivator. […]

PXR = test: PXR, CYP3A4 (CYP3A11) expression in mouse liver and intestine after single bolus; type: in vivo; details: 24 h post-treatment
[1] = system: C57BL/6 wild-type male mice; test: Acute toxicity in mice after single oral bolus; details: 100 mg single bolus by oral gavage, 24 h after the treatment
RXR = test: AlphaScreen nuclear receptor panel, RXR; type: biochemical, human
Source text: as §1, §2, §3

CAR = biological target: T2, CAR (Homo sapiens, UniProt Q14994); test: AlphaScreen nuclear receptor panel, CAR; type: biochemical
T2 construct: GST-LBD
T2 sequence (Q14994 109-352 limits assumed): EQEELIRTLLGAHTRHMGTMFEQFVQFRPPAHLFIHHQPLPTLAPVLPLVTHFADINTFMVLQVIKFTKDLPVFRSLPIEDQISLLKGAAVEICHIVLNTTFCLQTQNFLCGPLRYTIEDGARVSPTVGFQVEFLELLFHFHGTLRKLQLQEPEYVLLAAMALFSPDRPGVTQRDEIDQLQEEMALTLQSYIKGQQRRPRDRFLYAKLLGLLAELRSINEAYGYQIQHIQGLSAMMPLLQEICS
Source text: as §1, §2, §3

C/C(=C\CC/C(C)=C/CC[C@]1(C)CCc2cc(O)cc(C)c2O1)CC/C=C(\C)C(=O)O [GA (1), (2E,6E,10E)-13-[(2R)-6-hydroxy-2,8-dimethyl-chroman-2-yl]-2,6,10-trimethyltrideca-2,6,10-trienoic acid]
PXR agonist activity (AlphaScreen, single concentration) (hPXR): significant PXR agonist activity | Response on RAR (RAR): No response | CYP3A4 (CYP3A11 in mice) protein expression in liver and intestine (PXR; 5 to 25 mg single bolus): increased | PXR mRNA in intestine (PXR; mice, 5 to 25 mg single bolus): increased | PXR protein and mRNA in liver tissue (PXR; mice, 5 to 25 mg single bolus): dose-dependent stimulation effect | PXR protein expression in intestine (PXR; mice, single bolus): not sufficient to significantly increase PXR protein expression | Mortality [1]: 100% | Response on RXR (RXR): No response | Effect on CAR (constitutive activation) (CAR): partially inhibited
